Source: patent US20190022073A1, “PHARMACEUTICAL COMPOSITION COMPRISING RAPAMYCIN OR DERIVATIVE THEREOF” (NIPPON KAYAKU KABUSHIKI KAISHA, priority 2015, published 2019)

Assay: pH of the stabilizer (additive) in water/ethanol mixture, measured by pH meter MM-60R (TOA DKK)
Details: 5 mg/mL in water/EtOH=1:1 mixture
Description: The pH of the (B) component can be measured by preparing 50% (v/v) ethanol aqueous solution containing 5 mg/mL of the (B) component, and measuring pH using commercially available pH meter. For example, pH can be measured by using MM-60R (TOA DKK).

O=C([O-])CC(O)(CC(=O)[O-])C(=O)O.[Na+].[Na+] [disodium hydrogen citrate]
pH of the additive used as stabilizer: 6.3

O=C1O[C@H]([C@@H](O)CO)C([O-])=C1O.[Na+] [sodium ascorbate]
pH of the additive used as stabilizer: 8.4
